Calls of active or inactive are those of the source. The rule behind the calls is not given here.
System: CCRIS mutagenicity, Ames/micronucleus/aberration tests
Test: CCRIS mutagenicity studies
[1] = Test System: AMES SALMONELLA TYPHIMURIUM, Strain/Indicator: TA98, Metabolic Activation: NONE, Method: PREINCUBATION
[2] = Test System: AMES SALMONELLA TYPHIMURIUM, Strain/Indicator: TA98, Metabolic Activation: NONE, Method: STANDARD PLATE
[3] = Test System: AMES SALMONELLA TYPHIMURIUM, Strain/Indicator: TA98, Metabolic Activation: RAT, LIVER, S-9, AROCLOR 1254, Method: STANDARD PLATE
[4] = Test System: AMES SALMONELLA TYPHIMURIUM, Strain/Indicator: TA100, Metabolic Activation: NONE, Method: PREINCUBATION
[5] = Test System: AMES SALMONELLA TYPHIMURIUM, Strain/Indicator: TA100, Metabolic Activation: NONE, Method: STANDARD PLATE
[6] = Test System: AMES SALMONELLA TYPHIMURIUM, Strain/Indicator: TA100, Metabolic Activation: RAT, LIVER, S-9, AROCLOR 1254, Method: STANDARD PLATE
[7] = Test System: AMES SALMONELLA TYPHIMURIUM, Strain/Indicator: TA97, Metabolic Activation: NONE, Method: PREINCUBATION

With `Cc1ccc2n[nH]nc2c1` the mutagenic call (Test System: AMES SALMONELLA TYPHIMURIUM, Strain/Indicator: TA97, Metabolic Activation: NONE) was “inactive; negative”, the mutagenic call (Test System: AMES SALMONELLA TYPHIMURIUM, Strain/Indicator: TA97, Metabolic Activation: RAT, LIVER, S-9, AROCLOR 1254) was “inactive; negative” and the mutagenic call (Test System: AMES SALMONELLA TYPHIMURIUM, Strain/Indicator: TA98, Metabolic Activation: NONE) was “inactive; negative”. The mutagenic call (Test System: AMES SALMONELLA TYPHIMURIUM, Strain/Indicator: TA98, Metabolic Activation: RAT, LIVER, S-9, AROCLOR 1254) was “inactive; negative”, the mutagenic call (Test System: AMES SALMONELLA TYPHIMURIUM, Strain/Indicator: TA100, Metabolic Activation: NONE) was “inactive; negative” and the mutagenic call (Test System: AMES SALMONELLA TYPHIMURIUM, Strain/Indicator: TA100, Metabolic Activation: RAT, LIVER, S-9, AROCLOR 1254) was “inactive; negative”. For the same compound, the mutagenic call (Test System: AMES SALMONELLA TYPHIMURIUM, Strain/Indicator: TA102, Metabolic Activation: NONE) was “inactive; negative” and the mutagenic call (Test System: AMES SALMONELLA TYPHIMURIUM, Strain/Indicator: TA102, Metabolic Activation: RAT, LIVER, S-9, AROCLOR 1254) was “inactive; negative”.

`CN(C)c1ccc(C(=N)c2ccc(N(C)C)cc2)cc1` was tested, and the mutagenic call (Test System: AMES SALMONELLA TYPHIMURIUM, Strain/Indicator: TA97, Metabolic Activation: NONE, Method: STANDARD PLATE) was “inactive; negative”, the mutagenic call (Test System: AMES SALMONELLA TYPHIMURIUM, Strain/Indicator: TA97, Metabolic Activation: RAT, LIVER, S-9, AROCLOR 1254, Method: STANDARD PLATE) was “inactive; negative” and the mutagenic call (Test System: AMES SALMONELLA TYPHIMURIUM, Strain/Indicator: TA98, Metabolic Activation: HAMSTER, LIVER, S-9, AROCLOR 1254 (30%), Method: PREINCUBATION) was “active; positive”. For the same compound, the mutagenic call [1] was “inactive; negative”, the mutagenic call [2] was “inactive; negative” and the mutagenic call (Test System: AMES SALMONELLA TYPHIMURIUM, Strain/Indicator: TA98, Metabolic Activation: RAT, LIVER, S-9, AROCLOR 1254 (30%), Method: PREINCUBATION) was “active; positive”. For the same compound, the mutagenic call [3] was “inactive; negative”, the mutagenic call (Test System: AMES SALMONELLA TYPHIMURIUM, Strain/Indicator: TA100, Metabolic Activation: HAMSTER, LIVER, S-9, AROCLOR 1254 (30%), Method: PREINCUBATION) was “inactive; negative” and the mutagenic call [4] was “inactive; negative”. For the same compound, the mutagenic call [5] was “inactive; negative”, the mutagenic call (Test System: AMES SALMONELLA TYPHIMURIUM, Strain/Indicator: TA100, Metabolic Activation: RAT, LIVER, S-9, AROCLOR 1254 (30%), Method: PREINCUBATION) was “inactive; negative” and the mutagenic call [6] was “inactive; negative”. The mutagenic call (Test System: AMES SALMONELLA TYPHIMURIUM, Strain/Indicator: TA1538, Metabolic Activation: HAMSTER, LIVER, S-9, AROCLOR 1254 (30%), Method: PREINCUBATION) was “active; positive”, the mutagenic call (Test System: AMES SALMONELLA TYPHIMURIUM, Strain/Indicator: TA1538, Metabolic Activation: RAT, LIVER, S-9, AROCLOR 1254 (30%), Method: PREINCUBATION) was “active; positive” and the mutagenic call (Test System: CHINESE HAMSTER V-79, Strain/Indicator: V-79/6-THIOGUANINE, Metabolic Activation: NONE, Method: SUSPENSION/PLATE) was “inactive; negative”. For the same compound, the mutagenic call (Test System: CHINESE HAMSTER V-79, Strain/Indicator: V-79/6-THIOGUANINE, Metabolic Activation: RAT, LIVER, S-9, PHENOBARBITAL AND BETA-NAPHTHOFLAVONE, Method: SUSPENSION/PLATE) was “active; positive”.

With `c1ccc([C@H]2O[C@H]2c2ccccc2)cc1` the mutagenic call (Test System: UDS RAT HEPATOCYTES, Strain/Indicator: THY INCORP, Metabolic Activation: NONE) was “inactive; negative”.

In the case of `Cc1c2cc(CO)ccc2nc2c1ccc1ccccc12`, the mutagenic call [6] is reported as “active; positive”.

For `Cc1cc2c(c3cc4ccccc4cc13)C=C[C@H](O)[C@H]2O`, the mutagenic call (Test System: AMES SALMONELLA TYPHIMURIUM, Strain/Indicator: TA100, Metabolic Activation: RAT, LIVER, S-9, AROCLOR 1254, Method: PREINCUBATION) was “active; positive”.

In the case of `O[C@H]1[C@H]2O[C@H]2c2c(c3ccccc3c3ccccc23)[C@@H]1O`, the mutagenic call [7] is reported as “active; positive”, the mutagenic call [1] is reported as “active; positive” and the mutagenic call [4] is reported as “active; positive”. The mutagenic call (Test System: AMES SALMONELLA TYPHIMURIUM, Strain/Indicator: TA104, Metabolic Activation: NONE, Method: PREINCUBATION) was “active; positive” and the mutagenic call (Test System: CHINESE HAMSTER V-79, Strain/Indicator: V-79/6-THIOGUANINE, Metabolic Activation: NONE) was “active; positive”.

For `Cc1ccc(N(SC(F)(Cl)Cl)S(=O)(=O)N(C)C)cc1`, the mutagenic call (End Point: In vivo chromosomal aberrations, Test System: Peripheral blood lymphocytes, Species: Sheep, Strain/Sex: Merino/female, Route: Intrarumen) was “active; positive (structural changes)” and the mutagenic call (End Point: In vivo micronucleus, Test System: Peripheral blood lymphocytes, Species: Sheep, Strain/Sex: Merino/female, Route: Intrarumen) was “active; positive”.

With `Cc1nn(C)c(Oc2ccccc2)c1/C=N/OCc1ccc(C(=O)OC(C)(C)C)cc1` the mutagenic call (End Point: In vitro chromosomal aberrations, Test System: Human lymphocytes/Male, Metabolic Activation: None) was “inactive; negative”, the mutagenic call (End Point: In vitro chromosomal aberrations, Test System: Human lymphocytes/Male, Metabolic Activation: Rat, Liver, S-9) was “inactive; negative” and the mutagenic call (End Point: In vivol micronucleus, Species: Mouse, Strain/Sex: CD-1, Route: Oral) was “inactive; negative”.

For `COc1cc(NS(C)(=O)=O)ccc1Nc1c2ccc(N=[N+]=[N-])cc2nc2c(C)cccc12`, the mutagenic call (Test System: AMES SALMONELLA TYPHIMURIUM, Strain/Indicator: TA1537, Metabolic Activation: NONE, Method: STANDARD PLATE) was “active; positive”.

`OC1C2OC2=C2C=c3ccc4cccc5ccc(c3c54)C2C1O` (stereo not given) was tested, and the mutagenic call (Test System: CHINESE HAMSTER V-79, Strain/Indicator: V-79/8-AZAGUANINE, Metabolic Activation: NONE, Method: STANDARD PLATE) was “active; positive”.

With `O=[N+]([O-])c1ccc(CCO)cc1` the mutagenic call (Test System: AMES SALMONELLA TYPHIMURIUM, Strain/Indicator: TA97, Metabolic Activation: HAMSTER, LIVER, S-9, AROCLOR 1254 (10%), Method: PREINCUBATION) was “inactive; negative”, the mutagenic call [7] was “inactive; negative” and the mutagenic call (Test System: AMES SALMONELLA TYPHIMURIUM, Strain/Indicator: TA97, Metabolic Activation: RAT, LIVER, S-9, AROCLOR 1254 (10%), Method: PREINCUBATION) was “inactive; negative”. The mutagenic call (Test System: AMES SALMONELLA TYPHIMURIUM, Strain/Indicator: TA98, Metabolic Activation: HAMSTER, LIVER, S-9, AROCLOR 1254 (10%), Method: PREINCUBATION) was “active; positive”, the mutagenic call [1] was “active; positive” and the mutagenic call (Test System: AMES SALMONELLA TYPHIMURIUM, Strain/Indicator: TA98, Metabolic Activation: RAT, LIVER, S-9, AROCLOR 1254 (10%), Method: PREINCUBATION) was “active; positive”. The mutagenic call (Test System: AMES SALMONELLA TYPHIMURIUM, Strain/Indicator: TA100, Metabolic Activation: HAMSTER, LIVER, S-9, AROCLOR 1254 (10%), Method: PREINCUBATION) was “active; positive”, the mutagenic call [4] was “inactive; negative” and the mutagenic call (Test System: AMES SALMONELLA TYPHIMURIUM, Strain/Indicator: TA100, Metabolic Activation: RAT, LIVER, S-9, AROCLOR 1254 (10%), Method: PREINCUBATION) was “active; positive”. For the same compound, the mutagenic call (Test System: AMES SALMONELLA TYPHIMURIUM, Strain/Indicator: TA1535, Metabolic Activation: HAMSTER, LIVER, S-9, AROCLOR 1254 (10%), Method: PREINCUBATION) was “active; positive”, the mutagenic call (Test System: AMES SALMONELLA TYPHIMURIUM, Strain/Indicator: TA1535, Metabolic Activation: NONE, Method: PREINCUBATION) was “inactive; negative” and the mutagenic call (Test System: AMES SALMONELLA TYPHIMURIUM, Strain/Indicator: TA1535, Metabolic Activation: RAT, LIVER, S-9, AROCLOR 1254 (10%), Method: PREINCUBATION) was “active; positive”.

With `Cc1cc2c(nc(N)n2C)c2nccnc12` the mutagenic call [3] was “active; positive”.

`O=[N+]([O-])c1ccc2c(c1)cc([N+](=O)[O-])c1ccccc12` was tested, and the mutagenic call (Test System: AMES SALMONELLA TYPHIMURIUM, Strain/Indicator: TA98(1,8-DNP6), Metabolic Activation: NONE, Method: STANDARD PLATE) was “active; positive”, the mutagenic call (Test System: AMES SALMONELLA TYPHIMURIUM, Strain/Indicator: TA98(NR), Metabolic Activation: NONE, Method: STANDARD PLATE) was “active; positive” and the mutagenic call [2] was “active; positive”. For the same compound, the mutagenic call [5] was “active; positive”, the mutagenic call (Test System: AMES SALMONELLA TYPHIMURIUM, Strain/Indicator: YG1021, Metabolic Activation: NONE, Method: STANDARD PLATE) was “active; positive” and the mutagenic call (Test System: AMES SALMONELLA TYPHIMURIUM, Strain/Indicator: YG1024, Metabolic Activation: NONE, Method: STANDARD PLATE) was “active; positive”. The mutagenic call (Test System: AMES SALMONELLA TYPHIMURIUM, Strain/Indicator: YG1026, Metabolic Activation: NONE, Method: STANDARD PLATE) was “active; positive” and the mutagenic call (Test System: AMES SALMONELLA TYPHIMURIUM, Strain/Indicator: YG1029, Metabolic Activation: NONE, Method: STANDARD PLATE) was “active; positive”.
